Holding throughout (test): inhibition of tumour cell growth, NCI panel, 48 h
Assay [1] deals with 786-0 renal.
The subject of assay [2] is HCT-116 colon.
Assay [3] concerns HOP-62 NSCLC.
Assay [4] deals with HS 578T breast.
Assay [5] deals with MALME-3M melanoma.
Assay [6] concerns MDA-MB-435.
Assay [7] concerns SF-539 CNS.
Assay [8] deals with SK-OV-3 ovarian.
Assay [9] deals with SNB-19 CNS.
In assay [10] the test system is TK-10 renal.

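All cell lines were grown in 96-well plates and treated with compound for 48 hours. Abbreviation: GI50, concentration required for 50% inhibition of growth. TGI: total growth inhibition.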

With `COc1ccc(C2=C(c3cn(C)c4ccccc34)C(=O)NC2=O)cc1OC`, the GI50 in assay [1] was 8.28 µM; in [2] it was 6.68 µM; in assay [3], 11.8 µM; in assay [4], 3.85 µM; in assay [5] it was > 25 µM; in assay [6], 1.1 µM. The GI50 in [7] is 5.51 µM; in [8], 6.72 µM; in assay [9], > 25 µM; in assay [10], 9.2 µM. Besides, the TGI in [1] was > 25 µM; in assay [2] it was > 25 µM; in assay [3] it was > 25 µM; in assay [4], > 20.6 µM; in assay [5], > 25 µM; in [6], > 25 µM. Further, the TGI is > 18.1 µM in [7], > 25 µM in [8], > 25 µM in assay [9] and > 25 µM in assay [10].

Take `O=c1[nH]nc2c3c(cccc13)NC(CN1Cc3ccccc3C1)=N2`: the GI50 in assay [1] was 6.62 µM; in assay [2] it was 6.77 µM; in assay [3], 3.2 µM; in assay [4], 37.4 µM; in [5], 49.1 µM; in assay [6], 4.39 µM. Further, the GI50 in [7] was 7.9 µM; in assay [8], 3.11 µM; in assay [9] it was 52.3 µM; in [10], 8.89 µM. Also, the TGI in assay [1], in assay [2], in [3], in assay [4], in [5] and in assay [6] was > 100 µM throughout. Also, the TGI in assay [7], in assay [8], in assay [9] and in assay [10] was > 100 µM throughout.

For the compound `CCS(=O)(=O)c1ccc(OC)c(Nc2nccc(N(C)c3ccc4c(C)[nH]nc4c3)n2)c1`, the GI50 in assay [1] is 5.79 µM; in [2], 8.69 µM; in [3] it was 6.72 µM; in assay [4], 2.69 µM; in assay [5] it was 8.48 µM; in assay [6], 5.34 µM. For the same compound, the GI50 is 4.17 µM in assay [7], 5.03 µM in assay [8], 9.74 µM in [9] and 5.15 µM in assay [10]. Besides, the TGI in [1] was 18.4 µM; in assay [2] it was > 25 µM; in assay [3], > 25 µM; in assay [4], 14.4 µM; in [5], > 25 µM; in [6], 13.5 µM. Also, the TGI in assay [7] is 9.86 µM; in [8] it was 17.8 µM; in assay [9], > 25 µM; in [10], 14.5 µM.

Take `N#CSCC1CC(O)(c2ccccc2)C(c2ccccc2)C(c2ccc(F)cc2)O1` (stereo not given): the GI50 in assay [1] was 3.05 µM; in assay [2], 1.28 µM; in [3], 8.81 µM; in [4], 3.18 µM; in [5], 2.08 µM; in assay [6], 1.99 µM. Besides, the GI50 was 3.15 µM in [7], 28.6 µM in assay [8], 19 µM in assay [9] and 2.38 µM in assay [10]. Also, the TGI in [1] came out at 9.08 µM; in assay [2], 2.9 µM; in assay [3], 24.3 µM; in assay [4], 12.9 µM; in assay [5] it was 5.02 µM; in assay [6], 4.9 µM. Moreover, the TGI in [7] is 7.69 µM; in assay [8] it was > 90.6 µM; in assay [9] it was > 70.3 µM; in assay [10] it was 6.3 µM.

With `O=C(Nc1ccncc1)C(=O)c1cn(S(=O)(=O)c2ccccc2F)c2ccccc12`, the GI50 was 4.95 µM in assay [1]; 0.504 µM in [2]; 1.96 µM in assay [3]; 5.27 µM in [4]; 1.65 µM in assay [5]; 0.188 µM in [6]. In addition, the GI50 in assay [7] is 1.19 µM; in assay [8] it was 12 µM; in [9], 7.17 µM; in assay [10], 9.71 µM. In addition, the TGI in [1] was 40.9 µM; in assay [2] it was > 37.8 µM; in assay [3], 34.3 µM; in assay [4], > 100 µM; in assay [5], > 100 µM; in assay [6] it was 0.695 µM. The TGI is 7.88 µM in assay [7], 36.6 µM in assay [8], > 80.4 µM in assay [9] and > 49.3 µM in [10].

For `Cc1nn2c(/C=C3/C(=O)Nc4ccc(Cl)cc43)c(-c3ccccc3)nc2s1`, the GI50 in assay [1] was 2.37 µM; in [2], 1.9 µM; in assay [3] it was 2.01 µM; in assay [4] it was 2.45 µM; in assay [5], 2.17 µM; in assay [6] it was 3.24 µM. For the same compound, the GI50 in assay [7] was 2.25 µM; in assay [8], 2.25 µM; in [9], 9.54 µM; in [10] it was 3.3 µM. Further, the TGI in assay [1] was 5.8 µM; in [2] it was 4.61 µM; in assay [3], 3.99 µM; in [4], 7.79 µM; in [5], 5.57 µM; in [6], 13.5 µM. The TGI in assay [7] was determined as 6.54 µM; in [8] it was 5.03 µM; in assay [9], 34.2 µM; in [10], 8.79 µM.

For the compound `Cn1c2ccccc2c2nnc(N/N=C/c3ccccn3)nc21`, the GI50 in [1] is 0.256 µM; in [2], 0.349 µM; in assay [3], 0.337 µM; in assay [4] it was 2.06 µM; in [5], 0.334 µM; in assay [6], 0.459 µM. Also, the GI50 was 0.284 µM in assay [7], 0.421 µM in assay [8], 0.412 µM in assay [9] and 0.413 µM in [10]. The TGI is 0.758 µM in assay [1]; > 38.4 µM in assay [2]; 6.02 µM in assay [3]; 82.9 µM in assay [4]; 2.26 µM in [5]; > 54.6 µM in assay [6]. The TGI in assay [7] was 0.854 µM; in assay [8] it was 21.9 µM; in assay [9], > 100 µM; in assay [10], > 57.8 µM.

`C=C1C(=O)O[C@@H]2C[C@@H](C)[C@@H]3[C@@H](OC4OC(COC(C)=O)C(O)C(O)C4O)CC(=O)[C@@]3(C)C[C@H]12` (stereo not given in full): the TGI in [1] is 0.883 µM; in assay [2], 1.88 µM; in assay [3], 31.6 µM; in assay [4], > 100 µM; in assay [5], 0.849 µM; in [6], 6.03 µM. The TGI in assay [7] turned out to be 6.27 µM; in assay [8], 37.4 µM; in assay [9], 45.1 µM; in [10], 3.36 µM.

On to `CCOc1cc2ncc(C#N)c(Nc3ccc(F)c(Cl)c3)c2cc1NC(=O)/C=C/CN(C)C`, for which the GI50 in assay [1] is 0.339 µM; in assay [2], 0.333 µM; in assay [3], 1.27 µM; in assay [4], 0.381 µM; in assay [5], 0.36 µM; in [6] it was 0.323 µM. The GI50 was 0.826 µM in assay [7], 0.022 µM in assay [8], 1.61 µM in assay [9] and 0.00445 µM in assay [10]. Moreover, the TGI was 2 µM in assay [1]; 1.83 µM in [2]; > 10 µM in [3]; > 10 µM in [4]; 1.87 µM in assay [5]; 1.42 µM in assay [6]. The TGI was 2.31 µM in [7], 0.139 µM in [8], > 10 µM in [9] and 0.506 µM in assay [10].

With `CO/N=C1/NC(=O)/C(=C/c2ccc3ncccc3c2)S1`, the GI50 was 23.4 µM in assay [1]; 17.4 µM in assay [2]; > 22.6 µM in [3]; 4.06 µM in assay [4]; 13.9 µM in [5]; 15 µM in assay [6]. The GI50 is 8.27 µM in [7], 7.78 µM in assay [8], 11.6 µM in assay [9] and 8.01 µM in assay [10]. The TGI in assay [1] was > 25 µM; in [2] it was > 25 µM; in [3] it was > 25 µM; in assay [4] it was 17.5 µM; in assay [5], > 25 µM; in [6] it was > 25 µM. Also, the TGI in [7], in assay [8], in assay [9] and in assay [10] was > 25 µM each time.
